From US5541174A, “Analgesic method” (priority 1995, dated 1996)

Tests used:
[1] = system: acetic acid-induced writhing mouse pain model; assay: Naloxone reversal of analgesia in the acetic acid-induced writhing mouse pain model; format: in vivo; conditions: for % Inhibition: 555 umol/kg s.c.
Experimental: (§1) Groups of 10 ICR male mice (Taisho Pharmaceutical Co. Research Center) were used to study each dose of every compound. Ligands or complexes were administered orally or subcutaneously in 0.1 ml of vehicle per 10 g of body weight 30 minutes before the intrapertioneal injection of 0.1 ml of 0.7% acetic acid solution per 10 g of body weight. Number of writhes were counted for each mouse during a period of 10 to 20 min after acetic acid injection. Inhibitory percent was calculated by comparison with the number of writhes in the non-treated control, vehicle-treated, and acetic acid-injected group. The ED50 value and 95% confidence limits were calculated from the inhibitory percent by the method of Litchfield and Wilcoxon.
(§2) All drugs were suspended with 5% gum arabic in saline solution or wetted with enough propylene glycol to give a final concentration of 4% propylene glycol and the wetted solid suspended in 1.4% polyvinyl alcohol in saline.
NaloxoneHCL (3 umol/kg. i.v., in saline, Endo Lab.) was administered 5
min. before acetic acid injection.

[2] = system: acetic acid-induced writhing mouse pain model; assay: Measurement of time of peak activity in the acetic acid-induced writhing mouse pain model; format: in vivo
Experimental: as §1, with “Ligands or complexes were administered orally or subcutaneously in 0.1 ml of vehicle per 10 g of body weight 30 minutes before the intrapertioneal injection of 0.1 ml of 0.7% acetic acid solution per 10 g of body weight.” left out
as §2

[3] = system: acetic acid induced writhing in mice; assay: Acetic acid-induced writhing test; format: in vivo, ICR male mice
Experimental: 1. Acetic acid-induced writhing test as described in Koster et al., "Acetic Acid for Analgesic Screening", Fed. Proc. 18, 412 (1959), incorporated by reference herein; and
as §1

[4] = system: adjuvant-induced arthritic pain in rats; assay: Adjuvant-induced arthritic pain; format: in vivo, male Sprague-Dawley rats
Excerpt: 2. Adjuvant-induced arthritic pain as described in:
S. KUZNA, et al., Measurement of Arthritic Pain and Effects of Analgesics in the Adjuvant-Treated Rat, Chem. Pharm. Bull. 23, 1184-1191 (1975);
C. A. WINTER, et al., Analgesic Activity of Diflunisal in Rats with Hyperalygesia Induced by Freud's Adjuvant, J. Pharmacol. Exp. Ther. 211, 678-685 (1979; and
M. E. ROSENTHALE, et al., Adjuvant Arthritis:Immuno-Pathological and Hyperalgesic Features, Fed. Proced. 41, 2577-2582 (1982),
incorporated by reference herein.
Groups of 5-6 male Sprague-Dawley rats (Taisho Pharmaceutical Co. Research Center) weighing 140 to 160 g at the time of Mycobacterium butyricum (adjuvant, Difco Laboratories, Detroit, Mich.) injection were used to study each compound. Rats were injected intradermally at the base of the tail with 0.1 ml of a parafin oil suspension of 0.5 mg of heat-killed mycobacterium. Fifteen to 19 days later, drugs were administered orally or subcutaneously in 0.5 ml of vehicle per 100 g of body weight to rats showing the nociceptive reaction, vocalization following a gentle flexion of the tarsal-tibial joint of the inflamed hind-paw. Vocalization responses were measured every hour for 5 hours. […] The ED50 value and 95% confidence limits were calculated from the positive rate for non-treated controls, vehicle-treated adjuvant arthritic rats, by the method of Litchfield and Wilcoxin.
as §2

[5] = oral, 5% gum arabic, 0.30 mmol/kg
[6] = oral, 5% gum arabic, 0.59 mmol/kg
[7] = oral, 5% gum arabic, 0.06 mmol/kg
[8] = oral, 5% gum arabic, 0.12 mmol/kg
[9] = oral, 5% gum arabic, 0.24 mmol/kg
[10] = oral, 5% gum arabic, 0.04 mmol/kg
[11] = oral, 5% gum arabic, 0.08 mmol/kg

## CCN(CC)C(=S)[S-].CCN(CC)C(=S)[S-].[Cu+2] [Cu(II)(DDC)2, Bisdiethyldithiocarbamatocopper(II)]
[1]; with Naloxone HCl 3 umol/kg i.v.
  % Inhibition: 29%
[1]; without naloxone
  % Inhibition: 45%
[1]; Table VIII
  reduction of induced analgesia by Naloxone: reduction
[2]; 555 umol/kg s.c., 30 min
  Inhibition %: 29%
[2]; 555 umol/kg s.c., 60 min
  Inhibition %: 42%
[2]; 555 umol/kg s.c., 120 min
  Inhibition %: 45%
[2]; 555 umol/kg s.c., 180 min
  Inhibition %: 29%
[2]; Table VII
  duration of analgesic effect: prolonged duration of analgesic effect

## CCN(CC)C(=S)[S-].[Na+] [NaDDC, sodium diethyldithiocarbamate, reference compound]
[2]; 584 umol/kg s.c., 30 min
  Inhibition %: 48%
[2]; 584 umol/kg s.c., 60 min
  Inhibition %: 53%
[2]; 584 umol/kg s.c., 120 min
  Inhibition %: 20%
[2]; 584 umol/kg s.c., 180 min
  Inhibition %: 18%

## (Salicylato)2n -(aqua)4n -copper(II)n [Cu(II)(salicylate)2]
[3]; oral, 5% gum arabic in saline
  ED50: 0.65 mmol/kg
  analgesic effectiveness versus parent ligand: more effective than their parent ligands
[3]; [5]
  % Inhibition: 30%
[3]; [6]
  % Inhibition: 43%
[3]; oral, 5% gum arabic, 1.18 mmol/kg
  % Inhibition: 69%
[3]; oral, PG-PVA
  analgesic effectiveness versus parent ligand: more effective than their parent ligands
[3]; oral, PG-PVA in saline
  ED50: 1.53 mmol/kg
[3]; oral, PG-PVA, 0.30 mmol/kg
  % Inhibition: 20%
[3]; oral, PG-PVA, 0.59 mmol/kg
  % Inhibition: 27%
[3]; oral, PG-PVA, 1.18 mmol/kg
  % Inhibition: 46%
[3]; s.c., PG-PVA in saline
  ED50: 0.17 mmol/kg
[3]; s.c., PG-PVA, 0.07 mmol/kg
  % Inhibition: 40%
[3]; s.c., PG-PVA, 0.15 mmol/kg
  % Inhibition: 48%
[3]; s.c., PG-PVA, 0.30 mmol/kg
  % Inhibition: 66%
[4]; oral, 5% gum arabic
  analgesic effectiveness versus parent ligand: more effective than its parent ligand
[4]; oral, 5% gum arabic in saline
  ED50: 0.25 mmol/kg
[4]; oral, 5% gum arabic, 0.15 mmol/kg
  % Inhibition: 27%
[4]; [5]
  % Inhibition: 57%
[4]; [6]
  % Inhibition: 73%
[4]; oral, 5% gum arabic, FIG. 1, 5 hours post-treatment
  time course of analgesia: maintained or increased throughout the entire 5 hour post-treatment interval
[4]; oral, PG-PVA
  analgesic effectiveness versus parent ligand: more effective than its parent ligand
[4]; oral, PG-PVA in saline
  ED50: 0.12 mmol/kg
[4]; oral, PG-PVA, 0.15 mmol/kg
  % Inhibition: 30%
[4]; oral, PG-PVA, 0.30 mmol/kg
  % Inhibition: 47%
[4]; oral, PG-PVA, 0.59 mmol/kg
  % Inhibition: 90%
[4]; s.c., PG-PVA in saline
  ED50: 0.12 mmol/kg
[4]; s.c., PG-PVA, 0.04 mmol/kg
  % Inhibition: 20%
[4]; s.c., PG-PVA, 0.07 mmol/kg
  % Inhibition: 37%
[4]; s.c., PG-PVA, 0.15 mmol/kg
  % Inhibition: 57%

## Cu(II)2 (acetate)4
[3]; s.c., PG-PVA in saline
  ED50: 0.32 mmol/kg
[3]; s.c., PG-PVA, 0.21 mmol/kg
  % Inhibition: 42%
[3]; s.c., PG-PVA, 0.41 mmol/kg
  % Inhibition: 59%
[3]; s.c., PG-PVA, 0.83 mmol/kg
  % Inhibition: 61%
[3]; writhing model, Tables I and II
  effectiveness versus other compounds: more effective than anthranilic acid, salicylic acid, and aspirin
[4]; doses statistically significantly analgesic in the writhing model
  analgesic activity: devoid of analgesic activity
[4]; oral, PG-PVA in saline
  ED50: > 0.83 mmol/kg
[4]; oral, PG-PVA, 0.83 mmol/kg
  % Inhibition: 0%
[4]; s.c., PG-PVA in saline
  ED50: > 0.83 mmol/kg
[4]; s.c., PG-PVA, 0.83 mmol/kg
  % Inhibition: 3%

## Tetra(.eta.-acetylsalicylato)biscopper(II) [Cu(II)2 (aspirinate)4]
[3]; oral, 5% gum arabic in saline
  ED50: > 0.24 mmol/kg
  analgesic effectiveness versus parent ligand: more effective than their parent ligands
[3]; [7]
  % Inhibition: 37%
[3]; [8]
  % Inhibition: 38%
[3]; [9]
  % Inhibition: 33%
[3]; oral, PG-PVA
  analgesic effectiveness versus parent ligand: more effective than their parent ligands
[3]; oral, PG-PVA in saline
  ED50: 0.14 mmol/kg
[3]; oral, PG-PVA, 0.09 mmol/kg
  % Inhibition: 32%
[3]; oral, PG-PVA, 0.18 mmol/kg
  % Inhibition: 59%
[3]; oral, PG-PVA, 0.36 mmol/kg
  % Inhibition: 80%
[3]; s.c., PG-PVA in saline
  ED50: 0.04 mmol/kg
[3]; s.c., PG-PVA, 0.03 mmol/kg
  % Inhibition: 36%
[3]; s.c., PG-PVA, 0.06 mmol/kg
  % Inhibition: 59%
[3]; s.c., PG-PVA, 0.24 mmol/kg
  % Inhibition: 82%
[4]; oral, 5% gum arabic
  analgesic effectiveness versus parent ligand: more effective than their parent ligand
[4]; oral, 5% gum arabic in saline
  ED50: 0.29 mmol/kg
[4]; [7]
  % Inhibition: 7%
[4]; [8]
  % Inhibition: 17%
[4]; [9]
  % Inhibition: 43%
[4]; oral, PG-PVA in saline
  ED50: 0.09 mmol/kg
[4]; oral, PG-PVA, 0.03 mmol/kg
  % Inhibition: 13%
[4]; oral, PG-PVA, 0.06 mmol/kg
  % Inhibition: 30%
[4]; oral, PG-PVA, 0.12 mmol/kg
  % Inhibition: 60%
[4]; s.c., PG-PVA in saline
  ED50: 0.06 mmol/kg
[4]; s.c., PG-PVA, 0.03 mmol/kg
  % Inhibition: 23%
[4]; s.c., PG-PVA, 0.06 mmol/kg
  % Inhibition: 50%
[4]; s.c., PG-PVA, 0.12 mmol/kg
  % Inhibition: 73%

## [2[3(trifluoromethyl)phenyl]aminonicotinato]2n -(aqua)n -copper(II)n [Cu(II)2 (niflumate)4]
[3]; oral, 5% gum arabic in saline
  ED50: 0.09 mmol/kg
  analgesic effectiveness versus parent ligand: more effective than their parent ligands
[3]; [10]
  % Inhibition: 37%
[3]; [11]
  % Inhibition: 48%
[3]; oral, PG-PVA
  analgesic effectiveness versus parent ligand: more effective than their parent ligands
[3]; oral, PG-PVA in saline
  ED50: 0.10 mmol/kg
[3]; oral, PG-PVA, 0.06 mmol/kg
  % Inhibition: 33%
[3]; oral, PG-PVA, 0.12 mmol/kg
  % Inhibition: 57%
[3]; oral, PG-PVA, 0.24 mmol/kg
  % Inhibition: 73%
[3]; s.c., PG-PVA in saline
  ED50: 0.02 mmol/kg
[3]; s.c., PG-PVA, 0.01 mmol/kg
  % Inhibition: 37%
[3]; s.c., PG-PVA, 0.02 mmol/kg
  % Inhibition: 48%
[3]; s.c., PG-PVA, 0.04 mmol/kg
  % Inhibition: 58%
[4]; oral, 5% gum arabic
  analgesic effectiveness versus parent ligand: more effective than their parent ligand
[4]; oral, 5% gum arabic in saline
  ED50: 0.18 mmol/kg
[4]; [10]
  % Inhibition: 7%
[4]; [11]
  % Inhibition: 13%
[4]; oral, PG-PVA in saline
  ED50: > 0.16 mmol/kg
[4]; s.c., PG-PVA in saline
  ED50: 0.03 mmol/kg
[4]; s.c., PG-PVA, 0.01 mmol/kg
  % Inhibition: 17%
[4]; s.c., PG-PVA, 0.02 mmol/kg
  % Inhibition: 50%
[4]; s.c., PG-PVA, 0.04 mmol/kg
  % Inhibition: 60%
